From patent US20190382432A1 (Synbias Pharma AG, priority 2013, published 2019)
Counter-ions that a name gives are not always drawn. Marks after values point to notes of the source that are not given here.

Assays:
Assay type in all cases: physicochemical
[1] = Thermostability on storage at 25, 40 and 100 °C per ICH Q1A (R2), HPLC; details: 25, 40, 100 °C; data not shown
Procedure: HPLC and GC analyses were performed according to standard protocols.
The testing was performed as described in the ICH guidelines (cf. inter alia ICH Guideline Q1A (R2)).

[2] = Particle size distribution by laser diffraction analysis (Mastersizer 2000); details: wet laser diffraction in acetone
Procedure: Laser diffraction analysis was performed in form of wet laser diffraction in acetone: 1750 rpm, 3×20 s cycle time, 60 s background time, without sonication, and 5 min stirring time using a Mastersizer 2000 Particle Size Analyzer (Malvern Instruments Ltd., Malvern, UK) according to the manufacturer's instructions.

[3] = Thermostability under stress conditions (storage at 100 °C for one month), HPLC
Procedure: Sample S was prepared according to the present invention, as described in Example 3 above. Sample M1 was prepared according to Example 1 of WO 2012/163508 A1, as described in Example 7 above. Finally, Sample M2 was prepared according to Example 2 of WO 2012/163508 A1, as described in Example 7 above.
The samples were exposed to a temperature of 100° C. for the time period (in weeks) indicated. The testing was performed as described in the ICH Guideline Q1A (R2) (cf. above). The amount of the degradation product (i.e. doxorubicinone) produced as well as those of various impurities (i.e., doxorubicin and four different impurities of yet unknown identity; all given in % (w/w); “n.d.”=not determined) was determined by HPCL analysis (“LT”=less than).

[4] = Hygroscopic capacity: water content by Karl-Fischer titration after exposure to temperature and relative humidity; details: 25 or 40 °C, 40-90% rh; data not shown
Procedure: Coulometric Karl-Fischer titration (KFT; for determining the water content) was performed with an external drying oven (Metrohm 707 KF; operated at 140° C. with N2 purge). The samples were precisely weighed on an analytical balance (10^−5 g).
The testing was performed as described in the ICH guidelines.

| Compound | Doxorubicin (NMT 1%) ([3]; 0 weeks) | Doxorubicinone (Aglycone) (NMT 1%) ([3]; 0 weeks) | Total Impurities (NMT 2%) ([3]; 0 weeks) | Doxorubicin (NMT 1%) ([3]; 1 week, hydrochloride) | Doxorubicinone (Aglycone) (NMT 1%) ([3]; 1 week, hydrochloride) | Total Impurities (NMT 2%) ([3]; 1 week, hydrochloride) | Unknown impurity RRT 1.7 (NMT 0.15%) ([3]; 1 week, hydrochloride) | Doxorubicin (NMT 1%) ([3]; 2 weeks) | Doxorubicinone (Aglycone) (NMT 1%) ([3]; 2 weeks, hydrochloride) | Total Impurities (NMT 2%) ([3]; 2 weeks, hydrochloride) | Unknown impurity RRT 1.2 (NMT 0.15%) ([3]; 2 weeks, hydrochloride) | Unknown impurity RRT 1.6 (NMT 0.15%) ([3]; 2 weeks, hydrochloride) | Unknown impurity RRT 1.7 (NMT 0.15%) ([3]; 2 weeks, hydrochloride) | Doxorubicin (NMT 1%) ([3]; 3 weeks, hydrochloride) | Doxorubicinone (Aglycone) (NMT 1%) ([3]; 3 weeks, hydrochloride) | Total Impurities (NMT 2%) ([3]; 3 weeks, hydrochloride) | Unknown impurity RRT 1.2 (NMT 0.15%) ([3]; 3 weeks, hydrochloride) | Unknown impurity RRT 1.6 (NMT 0.15%) ([3]; 3 weeks, hydrochloride) | Unknown impurity RRT 1.7 (NMT 0.15%) ([3]; 3 weeks, hydrochloride) | Doxorubicin (NMT 1%) ([3]; 4 weeks) | also measured |
| --- | --- | --- | --- | --- | --- | --- | --- | --- | --- | --- | --- | --- | --- | --- | --- | --- | --- | --- | --- | --- | --- |
| COc1cccc2c1C(=O)c1c(O)c3c(c(O)c1C2=O)C[C@@](O)(C(=O)CO)C[C@@H]3O[C@H]1C[C@H](N)[C@H](O)[C@H](C)O1 [S, epirubicin hydrochloride] | 0.29 % (w/w) | < 0.05 % (w/w) | 0.30 % (w/w) | 0.28 % (w/w) | 0.39 % (w/w) | 0.80 % (w/w) | 0.08 % (w/w) | 0.32 % (w/w) | 0.40 % (w/w) | 0.90 % (w/w) | 0.07 % (w/w) | 0.05 % (w/w) | 0.09 % (w/w) | 0.32 % (w/w) | 0.46 % (w/w) | 1.10 % (w/w) | 0.08 % (w/w) | 0.12 % (w/w) | 0.13 % (w/w) | 0.33 % (w/w) | Thermostability compared with the Example 1 monohydrate (TABLE 5-1), in words [1]: almost identical results; D(v/0.5), mean diameter based on the volume of the particles ([2]; listed as Sample 3, hydrochloride): 25.25 μm; Doxorubicinone (Aglycone) (NMT 1%) ([3]; 4 weeks, hydrochloride): 0.49 % (w/w); Total Impurities (NMT 2%) ([3]; 4 weeks, hydrochloride): 1.3* % (w/w); Total amount of unknown impurities ([3]; 4 weeks, hydrochloride): 0.48 % (w/w); Unknown impurity RRT 1.1 (NMT 0.15%) ([3]; 4 weeks, hydrochloride): 0.06 % (w/w); Unknown impurity RRT 1.2 (NMT 0.15%) ([3]; 4 weeks, hydrochloride): 0.11 % (w/w); Unknown impurity RRT 1.6 (NMT 0.15%) ([3]; 4 weeks, hydrochloride): 0.15 % (w/w); Unknown impurity RRT 1.7 (NMT 0.15%) ([3]; 4 weeks, hydrochloride): 0.15 % (w/w); Degradation under stress conditions compared with M1 and M2, in words ([3]; one month): less pronounced degradation; Hygroscopic capacity compared with the Example 1 monohydrate (TABLE 6-1), in words [4]: almost identical results |
| COc1cccc2c1C(=O)c1c(O)c3c(c(O)c1C2=O)C[C@@](O)(C(=O)CO)C[C@@H]3O[C@H]1C[C@H](N)[C@H](O)[C@H](C)O1 [Example M1, epirubicin hydrochloride] | 0.29 % (w/w) | < 0.05 % (w/w) | 0.30 % (w/w) | 0.27 % (w/w) | 0.52 % (w/w) | 1.20 % (w/w) | 0.12 % (w/w) | 0.32 % (w/w) | 0.57 % (w/w) | 1.60 % (w/w) | 0.13 % (w/w) | 0.18 % (w/w) | 0.16 % (w/w) | 0.33 % (w/w) | 0.61 % (w/w) | 1.80 % (w/w) | 0.14 % (w/w) | 0.24 % (w/w) | 0.20 % (w/w) | 0.33 % (w/w) | D(v/0.5), mean diameter based on the volume of the particles ([2]; listed as Sample 1, hydrochloride): 4.62 μm; Unknown impurity RRT 1.2 (NMT 0.15%) ([3]; 1 week, hydrochloride): 0.06 % (w/w); Unknown impurity RRT 1.6 (NMT 0.15%) ([3]; 1 week, hydrochloride): 0.08 % (w/w); Unknown impurity RRT 1.1 (NMT 0.15%) ([3]; 2 weeks, hydrochloride): 0.11 % (w/w); Unknown impurity RRT 1.1 (NMT 0.15%) ([3]; 3 weeks, hydrochloride): 0.14 % (w/w); Doxorubicinone (Aglycone) (NMT 1%) ([3]; 4 weeks, hydrochloride): 0.61 % (w/w); Total Impurities (NMT 2%) ([3]; 4 weeks, hydrochloride): 2.3* % (w/w); Total amount of unknown impurities ([3]; 4 weeks, hydrochloride): 1.36 % (w/w); Unknown impurity RRT 1.1 (NMT 0.15%) ([3]; 4 weeks, hydrochloride): 0.18 % (w/w); Unknown impurity RRT 1.2 (NMT 0.15%) ([3]; 4 weeks, hydrochloride): 0.18 % (w/w); Unknown impurity RRT 1.6 (NMT 0.15%) ([3]; 4 weeks, hydrochloride): 0.46 % (w/w); Unknown impurity RRT 1.7 (NMT 0.15%) ([3]; 4 weeks, hydrochloride): 0.31 % (w/w) |
